# Reference: US7479540B1, “Adipomodulin and related molecules and methods” (priority 2003, dated 2009)
# Values joined by “and” are separate entries in the source; they are usually repeats but may differ in a detail not shown here. Identical values can stand only once.
# Experiments:
# [1] = test system: HSL+/+ adipocytes; experiment: Lipolysis (glycerol release) in HSL+/+ adipocytes from wild type mice; assay type: cell-based, mouse; conditions: for Lipolysis (nmol glycerol produced): HSL +/+, 2 hours; for stimulation of lipolysis, result in words: HSL+/+ adipocytes compared with HSL−/−
# Method: (§1) To determine whether adipomodulin acts through the classical HSL pathway, Sample 121 was tested in HSL+/+ and HSL−/− adipocytes derived from wild type and HSL knockout mice (obtained from Dr. Grant Mitchell, Sainte Justine Hospital, Montreal, Quebec, Canada), respectively. […] Lipolysis was measured as glycerol release from an adipocyte suspension. In each experiment, adipocytes were pooled from perigonadal fat of two to four 6-month-old mice of the same gender and genotype. One hundred microliters of adipocyte suspension were incubated for 2 hours in a final volume of […] of Krebs-Ringer-HEPES (30 mM) buffer (pH 7.4) supplemented with 2.5% BSA, 2.5% N6-[R-(−)-1-methyl-2-phenyl] adenosine ([…]), and 1 U/mL adenosine deaminase. In some tubes, the lipolytic beta3-adrenergic agonist CL316,243 ([…]) (Wyeth-Ayerst Research Laboratories, Princeton, N.J.) or cAMP agonist (dibutryl cAMP) were added. After a 2-hour incubation, the reaction was stopped by freezing on dry ice. The mixture was extracted with chloroform to remove triglycerides, and glycerol content was then determined by glycerol assay kit (Roche Diagnostics).
# [2] = test system: HSL−/− adipocytes; experiment: Lipolysis (glycerol release) in HSL-/- adipocytes from HSL knockout mice; assay type: cell-based, mouse; conditions: 2 hours
# Method: as §1
# [3] = test system: NIH 3T3-L1 adipocytes; experiment: Lipolysis (glycerol) in differentiated NIH 3T3-L1 adipocytes (Example 8); assay type: cell-based, mouse; conditions: 0.1 mM, 4 hours, 37° C.
# Method: (§2) Stimulation of lipolysis in differentiated 3T3-L1 cells was measured according to the procedure described in Hirsch, A. H. & Rosen, O. M., “Lipolytic stimulation modulates the subcellular distribution of hormone-sensitive lipase in 3T3-L1 cells,” J. Lipid Res., vol. 25, pp. 665-667 (1984), which is incorporated herein in its entirety. The 3T3-L1 preadipocyte cell line (from ATCC) was differentiated by treating confluent monolayers with dexamethasone 0.5 μM, 0.15 μM insulin, and methylisobutylxanthine (IBMX) 0.5 mM. After 48 hours, the cells were fed with fresh medium containing 0.15 μM insulin and maintained in culture for 24 hours. Next, the cells were maintained in insulin-free DMEM containing 10% fetal bovine serum for 4-5 days. On the day of experimentation, the differentiated cells were incubated in serum-free DMEM containing 0.2% fatty acid free BSA and 5 mM glucose and treated with adipomodulin, adipomodulin elution buffer, or IBMX at 37° C. for 4 hours. […] The levels of cAMP in the cytosol and the supernatant were measured by competitive radioimmunoassay. […] After several washing steps, the complexes of radioactive cAMP-antibody are counted in a gamma counter. […]
# [4] = test system: cAMP; experiment: cAMP radioimmunoassay in differentiated NIH 3T3-L1 adipocytes; assay type: cell-based, mouse
# Method: as §2
# [5] = molecular target: receptor for adipomodulin on NIH 3T3-L1 adipocytes (mouse); experiment: 125I-ligand binding to 3T3-L1 adipocytes at 4 C, 2 h, competitor: excess unlabeled λ- + k-light chain mix
Molecule,Lipolysis (nmol glycerol produced) ([1]; 10 uM),Lipolysis (nmol glycerol produced) ([2]; 10 uM),"stimulation of lipolysis, result in words [1]",other results
"C[C@H](Cc1ccc2c(c1)OC(C(=O)[O-])(C(=O)[O-])O2)NC[C@H](O)c1cccc(Cl)c1.[Na+].[Na+] [CL316, 243]",6.2 ± 1.1 nmol glycerol produced,1.1 ± 0.3 nmol glycerol produced,,
"CCCC(=O)Nc1ncnc2c1ncn2[C@@H]1O[C@@H]2COP(=O)(O)O[C@H]2[C@H]1OC(=O)CCC [Dibutryl cAMP, dibutryl cAMP]",,,stimulated lipolysis most dramatically in HSL+/+ adipocytes,Lipolysis (nmol glycerol produced) ([1]; 1 mM): 7.6 ± 1.0 nmol glycerol produced; Lipolysis (nmol glycerol produced) ([2]; 1 mM): 1.1 ± 0.1 nmol glycerol produced
"CC(C)Cn1c(=O)n(C)c(=O)c2[nH]cnc21 [IBMX, methylisobutylxanthine]",,,,"Lipolysis [3]: 3400 ± 50 pmol glycerol/well; cAMP ([4]; 0.1 mM, 4 hours, 37° C.): 69 ± 4 fmol/well; effect on cAMP, result in words ([4]; versus medium control and elution buffer controls): significant stimulation of cAMP"
"CC(C)NCC(O)c1ccc(O)c(O)c1 (stereo not drawn) [Isoproterenol, isoproterenol]",5.8 ± 1.0 nmol glycerol produced,0.9 ± 0.2 nmol glycerol produced,stimulated lipolysis most dramatically in HSL+/+ adipocytes,
adipomodulin (Sample 122),,,,"Binding, CPM/well [5]: 3230 CPM/well and 3840 CPM/well"
